In ChEMBL document CHEMBL3351946, “Design and synthesis of potent antitumor water-soluble phenyl N-mustard-benzenealkylamide conjugates via a bioisostere approach” (Eur J Med Chem, 2014):
Calls of active or inactive are those of the source. The calls are words filed in the database; no cut-off is given here.

Columns and labels:
HCT-116 = assay: Induction of apoptosis in human HCT116 cells assessed as caspase-3 cleavage at 1 to 4 uM after 24 hrs by Western blot analysis; assay type: functional, cell-based
Mus musculus [1] = assay: Toxicity in nude mouse xenografted with human H460 cells assessed as body weight loss at 30 mg/kg,iv qd administered for 6 days measured on day 15 relative to control; assay type: organism-based; parameters: dose 30 mg/kg; details: in vivo, 144 h
PC-3 = assay: Antitumor activity against human PC3 cells xenografted in iv dosed nude mouse assessed as tumor growth inhibition; assay type: functional, organism-based
[2] = Antitumor activity against human H460 cells xenografted in nude mouse assessed as tumor growth inhibition at 30 mg/kg,iv qd administered for 6 days measured on day 19 to 26 relative to control; assay type: functional, NCI-H460
[3] = Cell cycle arrest in human HCT116 cells assessed as accumulation at S phase at 4 uM after 24 hrs by FACS flow cytometric analysis (reference value: 18.71 +/- 2.25%); assay type: functional, cell-based; details: HCT-116
Mus musculus [4] = assay: Induction of apoptosis in HCT116 cells xenografted in nude mouse at 30 mg/kg, iv qd administered for 6 days measured 24 hrs post last dose by hematoxylin and eosin staining; assay type: functional, organism-based; parameters: dose 30 mg/kg; details: HCT-116
CCRF-CEM = assay: Cytotoxicity against vinblastine-resistant human CCRF-CEM cells assessed as growth inhibition after 72 hrs by Alamar Blue assay; assay type: functional, cell-based
[5] = Antitumor activity against human H3347 cells xenografted in nude mouse assessed as tumor growth inhibition at 30 mg/kg,iv qd administered for 6 days measured on day 31 relative to control; assay type: functional; details: read-out: TGI
[6] = Cytotoxicity against human H3347 cells assessed as growth inhibition after 72 hrs by Alamar Blue assay; assay type: functional, cell-based; details: H3347, 72 h
[7] = Cell cycle arrest in human HCT116 cells assessed as accumulation at S phase at 2 uM after 48 hrs by FACS flow cytometric analysis (reference value: 12.11 +/- 4.28%); assay type: functional, cell-based; details: HCT-116
[8] = target: Voltage-gated inwardly rectifying potassium channel KCNH2 (Homo sapiens, UniProt Q12809); assay: Binding affinity to human ERG after 4 hrs by fluorescence polarization assay
Sequence of Voltage-gated inwardly rectifying potassium channel KCNH2 (Q12809 whole entry): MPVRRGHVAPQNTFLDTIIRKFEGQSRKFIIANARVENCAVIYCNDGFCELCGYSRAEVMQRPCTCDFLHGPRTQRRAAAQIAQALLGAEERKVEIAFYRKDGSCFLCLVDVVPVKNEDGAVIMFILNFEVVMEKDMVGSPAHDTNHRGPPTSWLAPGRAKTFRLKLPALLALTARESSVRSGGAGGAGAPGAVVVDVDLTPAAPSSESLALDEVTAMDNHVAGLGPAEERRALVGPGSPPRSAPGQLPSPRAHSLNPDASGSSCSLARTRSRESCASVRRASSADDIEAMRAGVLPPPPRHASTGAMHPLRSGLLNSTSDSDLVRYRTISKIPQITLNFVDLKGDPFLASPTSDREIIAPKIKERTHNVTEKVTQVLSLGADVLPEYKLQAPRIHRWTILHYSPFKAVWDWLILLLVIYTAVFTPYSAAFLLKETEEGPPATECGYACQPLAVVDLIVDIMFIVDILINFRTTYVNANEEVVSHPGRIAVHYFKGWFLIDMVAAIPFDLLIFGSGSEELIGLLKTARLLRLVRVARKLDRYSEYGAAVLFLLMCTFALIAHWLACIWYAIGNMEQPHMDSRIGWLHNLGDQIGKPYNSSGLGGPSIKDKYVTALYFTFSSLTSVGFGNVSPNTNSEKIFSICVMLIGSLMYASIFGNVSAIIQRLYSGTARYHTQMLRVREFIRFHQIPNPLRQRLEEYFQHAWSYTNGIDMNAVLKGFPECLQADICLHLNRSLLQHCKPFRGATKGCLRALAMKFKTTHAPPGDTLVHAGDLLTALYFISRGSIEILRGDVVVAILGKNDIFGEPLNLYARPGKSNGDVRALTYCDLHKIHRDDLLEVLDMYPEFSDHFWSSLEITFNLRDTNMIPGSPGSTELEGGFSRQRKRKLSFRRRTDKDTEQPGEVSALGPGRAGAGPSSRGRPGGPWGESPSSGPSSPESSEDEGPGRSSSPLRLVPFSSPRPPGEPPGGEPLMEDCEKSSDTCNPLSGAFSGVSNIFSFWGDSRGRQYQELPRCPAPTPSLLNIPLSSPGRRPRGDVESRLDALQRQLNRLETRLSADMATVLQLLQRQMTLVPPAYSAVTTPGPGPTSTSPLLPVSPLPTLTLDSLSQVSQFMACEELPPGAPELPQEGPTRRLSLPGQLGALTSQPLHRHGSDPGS

Mus musculus [9] = assay: Toxicity in iv dosed CD-1 (ICR) mouse assessed as feces stain measured for 14 days; assay type: organism-based; details: in vivo, 336 h
HT-29 = assay: Cytotoxicity against human HT-29 cells assessed as growth inhibition after 72 hrs by Alamar Blue assay; assay type: functional, cell-based; details: HT-29, 72 h
Mus musculus [10] = assay: Toxicity in nude mouse xenografted with human PC3 cells assessed as change in body weight at 30 mg/kg,iv qd administered for 6 days measured on day 31 relative to control; assay type: organism-based, PC-3; parameters: dose 30 mg/kg; details: in vivo, 144 h
[11] = Cell cycle arrest in human HCT116 cells assessed as accumulation at G2/M phase at 4 uM after 24 hrs by FACS flow cytometric analysis (reference value: 31.55 +/- 4.63%); assay type: functional, cell-based; details: HCT-116
[12] = Cell cycle arrest in human HCT116 cells assessed as accumulation at G2/M phase after 24 hrs by FACS flow cytometric analysis; assay type: functional, cell-based; details: HCT-116
[13] = Cell cycle arrest in human HCT116 cells assessed as accumulation at sub-G1 phase at 4 uM after 24 hrs by FACS flow cytometric analysis (reference value: 1.37 +/- 0.95%); assay type: functional, cell-based; details: HCT-116
Mus musculus [14] = assay: Toxicity in nude mouse xenografted with human PC3 cells assessed as body weight loss at 40 mg/kg,iv administered every 2 days for 5 doses measured on day 16 relative to control; assay type: organism-based, PC-3; parameters: dose 40 mg/kg; details: in vivo, 48 h
[15] = Cell cycle arrest in human HCT116 cells assessed as accumulation at G2/M phase at 1 uM after 48 hrs by FACS flow cytometric analysis (reference value: 23.95 +/- 1.87%); assay type: functional, cell-based; details: HCT-116
[16] = Cell cycle arrest in human HCT116 cells assessed as accumulation at G2/M phase at 4 uM after 72 hrs by FACS flow cytometric analysis (reference value: 12.82 +/- 2.19%); assay type: functional, cell-based; details: HCT-116
Mus musculus [17] = assay: Toxicity in nude mouse xenografted with human HCT116 cells assessed as change in body weight at 30 mg/kg,iv qd administered for 6 days measured on day 31 relative to control; assay type: organism-based, HCT-116; parameters: dose 30 mg/kg; details: in vivo, 144 h
[18] = Antitumor activity against human PC3 cells xenografted in nude mouse assessed as tumor growth inhibition at 30 mg/kg,iv qd administered for 6 days measured on day 21 relative to control; assay type: functional, PC-3
[19] = Cell cycle arrest in human HCT116 cells assessed as accumulation at G2/M phase at 1 uM after 24 hrs by FACS flow cytometric analysis (reference value: 31.55 +/- 4.63%); assay type: functional, cell-based; details: HCT-116
[20] = Cell cycle arrest in human HCT116 cells assessed as accumulation at sub-G1 phase at 2 uM after 24 hrs by FACS flow cytometric analysis (reference value: 1.37 +/- 0.95%); assay type: functional, cell-based; details: HCT-116

## CCN(CC)CC(=O)Nc1ccc(NC(=O)Nc2ccc(N(CCCl)CCCl)cc2)cc1
HCT-116
  Activity: Active
Mus musculus [1]
  %max: -18%
PC-3
  TGI: Dose-dependent effect
[2]
  %max: 61%
[3]
  Activity: 27.6%
Mus musculus [4]
  Activity: Active
CCRF-CEM
  IC50: 2160 nM
[5]
  inhibition in vivo at 30 mg/kg: 90%
[6]
  IC50: 870 nM
[7]
  Activity: 11.9%
[8]
  Activity: 4.48 µM
Mus musculus [9]
  Activity: Dose-dependent effect
HT-29
  IC50: 19000 nM
Mus musculus [10]
  Activity: -28%
[11]
  Activity: 56.3%
[12]
  Activity: Dose-dependent effect
[13]
  Activity: 4.31%
Mus musculus [14]
  %max: -15%
[15]
  Activity: 28.2%
[16]
  Activity: 41.4%
Mus musculus [17]
  Activity: 9%
[18]
  %max: 56%
[19]
  Activity: 63.2%
[20]
  Activity: 1.55%
